Reference: PubChem BioAssay (NCI)
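Where inhibition never reached the appropriate level, the endpoint shown equals the highest concentration tested. Otherwise, values were interpolated linearly from a five-concentration, 48-hour dose response in 96-well plates. TGI: concentration producing complete growth inhibition.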 Where a SMILES comes first, the peptide text is derived from it. [ ]: non-standard residue; d: D form. The star is where a group is joined. Phe(4-NO2) = N[CH](Cc1ccc([N+](=O)[O-])cc1)C(=O)O; Cbz = O=C(OCc1ccccc1)*

How the values were obtained:
Test in all cases: inhibition of tumour cell growth, NCI panel, 48 h
[1] = tested on: U251 CNS
[2] = tested on: M14 melanoma
[3] = tested on: UO-31 renal
[4] = tested on: RPMI-8226 leukemia
[5] = tested on: HCC-2998 colon
[6] = tested on: HL-60(TB) leukemia
[7] = tested on: IGROV1 ovarian
[8] = tested on: SF-268 CNS
[9] = tested on: EKVX NSCLC
[10] = tested on: NCI-H23 lung
[11] = tested on: CCRF-CEM leukemia
[12] = tested on: OVCAR-3 ovarian
[13] = tested on: NCI-H226 lung
[14] = tested on: OVCAR-4 ovarian
[15] = tested on: SK-MEL-28 melanoma

| Structure (SMILES) | TGI [1] [µM] | TGI [2] [µM] | TGI [3] [µM] | TGI [4] [µM] | TGI [5] [µM] | TGI [6] [µM] | TGI [7] [µM] | TGI [8] [µM] | TGI [9] [µM] | TGI [10] [µM] | TGI [11] [µM] | TGI [12] [µM] | TGI [13] [µM] | TGI [14] [µM] | TGI [15] [µM] |
| --- | --- | --- | --- | --- | --- | --- | --- | --- | --- | --- | --- | --- | --- | --- | --- |
| CCOC(=O)C1Cc2ccc(C)cc2C1=O (configuration not stated) | > 100 | > 100 | > 100 | > 100 | > 100 | 69.9 | > 100 | > 100 | > 100 | > 100 | > 100 | > 100 | > 100 | > 100 | > 100 |
| N=c1oc2ccccc2cc1C(=O)Nc1ccccn1 | > 100 | > 100 | – | > 100 | > 100 | > 100 | > 100 | > 100 | > 100 | > 100 | > 100 | > 100 | > 100 | > 100 | > 100 |
| COc1ccc(/C=C2\CC3C4CC=C5C[C@@H](N6CCCC6)CC[C@]5(C)C4CC[C@]3(C)[C@H]2O)cc1OC (some centres not stated) | 15.8 | 16.8 | 18.5 | 22.1 | 11.7 | 42.4 | 21.4 | 22.4 | 16.9 | 17.6 | 50 | 16.8 | 20.2 | 17.1 | 20.1 |
| O=C1NCC2(CCN(CC3COc4ccccc4O3)CC2)N1c1ccccc1 (configuration not stated) | > 100 | > 100 | > 100 | > 100 | > 100 | > 100 | > 100 | > 100 | > 100 | > 100 | > 100 | > 100 | > 100 | > 100 | > 100 |
| C#CCNC(CCCN=C(N)N)C(=O)O (configuration not stated) | > 100 | > 100 | > 100 | > 100 | > 100 | > 100 | > 100 | > 100 | > 100 | > 100 | > 100 | > 100 | > 100 | > 100 | > 100 |
| COc1ccccc1OC/C(N=Cc1cccnc1)=N/NC(=O)c1ccncc1 | > 100 | > 100 | – | > 100 | > 100 | > 100 | > 100 | > 100 | > 100 | > 100 | > 100 | > 100 | > 100 | > 100 | > 100 |
| COc1cc(C)cc2c1C(=O)C(NC(C)=O)=CC2=O | > 100 | > 100 | > 100 | > 100 | > 100 | 53.2 | > 100 | > 100 | > 100 | > 100 | > 100 | > 100 | > 100 | 74.5 | > 100 |
| CCOC(=O)CCC(NC(=O)OCc1ccccc1)C(=O)NC(CCC(=O)OCC)C(=O)NC(CCC(=O)OCC)C(=O)NC(CCC(=O)OCC)C(=O)NC(CCC(=O)OCC)C(=O)NC(Cc1ccc([N+](=O)[O-])cc1)C(=O)NC(CCC(=O)OCC)C(=O)NC(CCC(=O)OCC)C(=O)NC(CCC(=O)OCC)C(=O)NC(CCC(=O)OCC)C(=O)NC(CCC(=O)OCC)C(=O)OCC (configuration not stated) (Cbz-E(OEt)E(OEt)E(OEt)E(OEt)E(OEt)[Phe(4-NO2)]E(OEt)E(OEt)E(OEt)E(OEt)E(OEt)-OEt; configuration not given here) | > 50 | > 50 | > 50 | > 50 | > 50 | > 50 | > 50 | > 50 | > 50 | > 50 | > 50 | > 50 | > 50 | > 50 | > 50 |
| O=C1/C(=C/c2ccc([N+](=O)[O-])cc2)Oc2cc(O)ccc21 | 93 | > 100 | 51 | 65.8 | > 100 | 37.4 | > 100 | > 100 | 96.3 | > 100 | 79.2 | 73.8 | 99.1 | > 100 | > 100 |
| C=CCNC(=S)NC=C(C(N)=O)C(N)=O | > 100 | > 100 | > 100 | > 100 | > 100 | > 100 | > 100 | > 100 | > 100 | > 100 | > 100 | > 100 | > 100 | > 100 | > 100 |
| CCSc1c2cc(OC)ccc2nc2ccc(OC)cc12 | > 79.2 | 33.3 | > 60.7 | 22.2 | 25.5 | > 100 | > 55 | > 58.6 | > 54 | > 86.1 | > 42.9 | > 61.2 | 40.1 | > 75.8 | > 59.2 |
| CCCCCCCCC#CCCCCCCC(F)C(=O)O (configuration not stated) | > 100 | > 100 | > 100 | > 100 | > 100 | 83.6 | > 100 | > 100 | > 100 | > 100 | > 100 | > 100 | > 100 | > 100 | > 100 |
| C1=C(c2ccccc2)NC2=N[C@H]3CCCC[C@@H]3N2C1c1ccccc1 (some centres not stated) | 26.1 | 25.5 | 24.8 | 49.8 | 28.4 | 42.2 | 26 | 51.7 | 29.3 | 25.8 | 43.4 | 25.8 | 28.9 | 22.2 | 27.4 |
| COc1ccc(-c2c(C#N)c(N)nc(Sc3ccccc3N)c2C#N)cc1 | 61 | > 100 | > 100 | > 100 | > 100 | > 100 | > 56.8 | 28.1 | > 100 | > 100 | > 100 | > 100 | > 100 | > 100 | > 100 |
| c1ccc2c(c1)n1c(N3CCCC3)[n+]3ccccc3c1c1c3cccc[n+]3c(N3CCCC3)n21 | > 100 | > 100 | – | > 100 | > 100 | > 100 | > 100 | 45.2 | > 100 | > 100 | > 100 | > 100 | > 100 | > 100 | > 100 |
